pKi: −log10 of the molar value. Counter-ions that a name gives are not always drawn. Like-named read-outs stand apart in the source and are kept apart here.
Assays:
Human α4β2 = Human α4β2 (Homo sapiens, UniProt P17787+P43681); assay: Binding at human α4β2 (Ki); method not described
α4β2 nAChR Subtype = α4β2 nAChR Subtype (Rattus norvegicus, UniProt P09483+P12390); assay: Radioligand binding at α4β2 nAChR subtype, inhibition of [3H]nicotine binding, rat cerebral cortex membranes; settings: [3H]nicotine 5 nM
Chain of α4β2 nAChR Subtype (P09483 31-630): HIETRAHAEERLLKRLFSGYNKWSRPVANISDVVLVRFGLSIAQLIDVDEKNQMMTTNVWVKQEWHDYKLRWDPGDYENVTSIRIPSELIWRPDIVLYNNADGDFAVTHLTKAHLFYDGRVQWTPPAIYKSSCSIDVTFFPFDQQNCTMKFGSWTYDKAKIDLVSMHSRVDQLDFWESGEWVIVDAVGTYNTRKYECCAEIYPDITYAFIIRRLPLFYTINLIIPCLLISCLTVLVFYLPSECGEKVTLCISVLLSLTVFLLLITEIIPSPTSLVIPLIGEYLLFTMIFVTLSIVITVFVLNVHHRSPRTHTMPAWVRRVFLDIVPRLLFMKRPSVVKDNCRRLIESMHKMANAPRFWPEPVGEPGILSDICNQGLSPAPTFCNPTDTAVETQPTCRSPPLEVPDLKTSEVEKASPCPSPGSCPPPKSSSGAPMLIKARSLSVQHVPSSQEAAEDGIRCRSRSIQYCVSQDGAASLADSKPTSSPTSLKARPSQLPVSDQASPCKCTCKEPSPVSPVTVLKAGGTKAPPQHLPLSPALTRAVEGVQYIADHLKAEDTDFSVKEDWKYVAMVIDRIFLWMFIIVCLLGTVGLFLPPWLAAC
Chain of α4β2 nAChR Subtype (P12390 25-500): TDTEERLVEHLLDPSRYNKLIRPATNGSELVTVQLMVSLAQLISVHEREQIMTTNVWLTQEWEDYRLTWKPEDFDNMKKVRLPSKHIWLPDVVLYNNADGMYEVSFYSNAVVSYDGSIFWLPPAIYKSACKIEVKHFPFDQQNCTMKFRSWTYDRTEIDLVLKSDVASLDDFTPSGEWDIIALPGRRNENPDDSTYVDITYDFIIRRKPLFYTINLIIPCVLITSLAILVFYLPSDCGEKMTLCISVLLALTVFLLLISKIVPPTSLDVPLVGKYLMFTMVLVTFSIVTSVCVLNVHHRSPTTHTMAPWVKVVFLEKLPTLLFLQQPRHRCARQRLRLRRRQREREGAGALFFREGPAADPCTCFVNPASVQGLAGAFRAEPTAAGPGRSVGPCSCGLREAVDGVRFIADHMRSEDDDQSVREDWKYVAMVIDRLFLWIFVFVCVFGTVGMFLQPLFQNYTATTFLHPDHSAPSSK
Method: The [^3H]nicotine (Specific Activity=81.5 Ci/mmol) was obtained from NEN Research Products. The binding of [^3H]nicotine was measured using a 3 h incubation at 4° C. […] Each filter was washed with ice-cold buffer (3×1 mL).
Each concentration was replicated in triplicate.

α7 nAChR Subtype = α7 nAChR Subtype (Rattus norvegicus, UniProt Q05941); assay: Radioligand binding at α7 nAChR subtype, inhibition of [3H]MLA binding, rat hippocampus membranes (HTS at 5 μM, then Ki); settings: for inhibition at 5 µM: read-out: α7 HTS outcome (α7 Ki)
Chain of α7 nAChR Subtype (Q05941 23-502): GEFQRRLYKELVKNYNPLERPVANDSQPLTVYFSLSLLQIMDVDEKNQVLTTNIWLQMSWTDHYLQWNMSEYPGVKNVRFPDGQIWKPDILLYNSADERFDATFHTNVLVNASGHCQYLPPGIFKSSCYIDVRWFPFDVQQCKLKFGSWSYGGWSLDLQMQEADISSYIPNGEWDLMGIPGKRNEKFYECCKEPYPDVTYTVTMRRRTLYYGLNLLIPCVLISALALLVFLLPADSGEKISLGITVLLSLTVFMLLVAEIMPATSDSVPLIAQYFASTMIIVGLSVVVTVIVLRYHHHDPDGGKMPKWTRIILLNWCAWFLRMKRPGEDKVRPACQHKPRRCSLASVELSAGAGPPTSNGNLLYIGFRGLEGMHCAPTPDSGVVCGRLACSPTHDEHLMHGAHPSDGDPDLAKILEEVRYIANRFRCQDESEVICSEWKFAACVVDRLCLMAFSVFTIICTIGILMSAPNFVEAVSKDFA

Chain of Human α4β2 (P43681 29-627 limits assumed): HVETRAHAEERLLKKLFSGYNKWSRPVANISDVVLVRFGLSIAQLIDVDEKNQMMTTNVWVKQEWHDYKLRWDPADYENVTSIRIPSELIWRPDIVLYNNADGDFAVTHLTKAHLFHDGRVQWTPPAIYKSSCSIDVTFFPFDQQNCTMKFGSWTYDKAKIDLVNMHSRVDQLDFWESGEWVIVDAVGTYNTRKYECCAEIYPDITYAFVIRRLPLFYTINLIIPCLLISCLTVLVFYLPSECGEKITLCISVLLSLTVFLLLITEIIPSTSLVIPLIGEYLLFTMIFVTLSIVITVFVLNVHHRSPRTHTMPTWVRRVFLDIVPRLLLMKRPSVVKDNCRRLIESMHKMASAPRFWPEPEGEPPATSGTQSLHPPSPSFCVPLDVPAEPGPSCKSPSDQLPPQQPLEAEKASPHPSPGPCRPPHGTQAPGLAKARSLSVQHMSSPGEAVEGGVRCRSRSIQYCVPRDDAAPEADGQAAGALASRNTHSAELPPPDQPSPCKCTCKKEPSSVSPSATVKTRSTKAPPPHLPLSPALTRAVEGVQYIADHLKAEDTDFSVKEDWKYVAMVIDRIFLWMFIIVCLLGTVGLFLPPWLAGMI
Chain of Human α4β2 (P17787 26-502): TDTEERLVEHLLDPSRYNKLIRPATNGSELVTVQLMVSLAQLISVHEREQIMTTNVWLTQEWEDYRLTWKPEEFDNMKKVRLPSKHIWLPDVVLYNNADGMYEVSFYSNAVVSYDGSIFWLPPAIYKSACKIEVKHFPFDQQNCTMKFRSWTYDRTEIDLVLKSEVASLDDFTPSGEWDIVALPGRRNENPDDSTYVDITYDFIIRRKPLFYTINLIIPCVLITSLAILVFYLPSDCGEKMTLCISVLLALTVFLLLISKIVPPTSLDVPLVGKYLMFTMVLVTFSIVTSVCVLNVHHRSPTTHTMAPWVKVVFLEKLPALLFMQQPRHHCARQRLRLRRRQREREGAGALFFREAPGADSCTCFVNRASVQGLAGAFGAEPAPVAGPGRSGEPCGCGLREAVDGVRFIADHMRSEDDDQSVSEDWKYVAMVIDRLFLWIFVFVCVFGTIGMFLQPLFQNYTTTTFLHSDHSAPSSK

Row | SMILES | pKi (Human α4β2) | pKi (α4β2 nAChR Subtype; read-out: Rat α4β2 Ki) | inhibition at 5 µM (α7 nAChR Subtype) [%] | pKi (α4β2 nAChR Subtype; Rat α4β2 Ki) | pKi (α7 nAChR Subtype) | pKi (α7 nAChR Subtype; read-out: α7 Ki, [3H]MLA 5 nM, rat hippocampus)
1 | Cc1ccc(C(=O)C2C[C@H]3CNC[C@H]3C2)o1 (mixture of isomers) [5-methylfuran-2-yl(3-azabicyclo[3.3.0]oct-7-yl)methanone] | 7.43 | 7.13 | < 50 |  |  | 
2 | CC(C)(C)NC(=O)C1CC2CNCC(C2)C1 (stereo not shown) [N-tert-butyl-3-azabicyclo[3.3.1]nonane-7-carboxamide] | 8.15 | 7.96 | < 50 |  |  | 
3 | CN(C)C(=O)C1=C[C@@H]2CNC[C@@H]2C1 [N,N-dimethyl-3-azabicyclo[3.3.0]oct-6-ene-7-carboxamide] | 6.79 |  |  | 7.22 | < 5.00 | 
4 | CC1COCC(C)N1C(=O)C1=C[C@@H]2CNC[C@@H]2C1 (stereo partly shown) [(3-azabicyclo[3.3.0]oct-6-en-7-yl)(2,6-dimethylmorpholin-1-yl)methanone] | 5.77 |  | < 50 |  |  | 
5 | O=C(c1occc1Br)C1C[C@H]2CNC[C@H]2C1 (mixture of isomers) [3-bromofuran-2-yl(3-azabicyclo[3.3.0]oct-7-yl)methanone] | 9.05 | 8.55 | < 50 |  |  | 
6 | CCCCC(=O)[C@@H]1C[C@H]2CNC[C@H]2C1 [trans-1-(3-azabicyclo[3.3.0]oct-7-yl)-1-pentanone] | 6.73 | 6.97 | < 50 |  |  | 
7 | CC(C)NC(=O)C1CC2CNCC(C2)C1 (stereo not shown) [N-isopropyl-3-azabicyclo[3.3.1]nonane-7-carboxamide] | 7.51 | 7.09 | < 50 |  |  | 
8 | O=C(c1ccco1)[C@@H]1C[C@H]2CNC[C@H]2C1 [trans-2-furanyl(3-azabicyclo[3.3.0]oct-7-yl)methanone] | 6.65 |  | < 50 | 6.33 |  | 
9 | CCCNC(=O)C1CC2CNCC(C2)C1 (stereo not shown) [N-propyl-3-azabicyclo[3.3.1]nonane-7-carboxamide] | 7.98 | 7.67 | < 50 |  |  | 
10 | CC(C)C(=O)C1C[C@H]2CNC[C@H]2C1 (mixture of isomers) [1-(3-azabicyclo[3.3.0]oct-7-yl)-2-methyl-1-propanone] | 9.70 |  |  | 9.52 | 5.62 | 
11 | C=CCNC(=O)C1CC2CNCC(C2)C1 (stereo not shown) [N-allyl-3-azabicyclo[3.3.1]nonane-7-carboxamide] | 8.37 | 7.51 | < 50 |  |  | 
12 | O=C(NCCF)C1CC2CNCC(C2)C1 (stereo not shown) [N-(2-fluoroethyl)-3-azabicyclo[3.3.1]nonane-7-carboxamide] | 7.87 |  |  | 6.91 | < 5.00 | 
13 | N#Cc1ccoc1C(=O)[C@H]1C[C@H]2CNC[C@H]2C1 [cis-3-cyanofuran-2-yl(3-azabicyclo[3.3.0]oct-7-yl)methanone] | 7.59 | 7.85 | < 50 |  |  | 
14 | CC(C)OC(=O)C1C[C@H]2CNC[C@H]2C1 (mixture of isomers) [isopropyl 3-azabicyclo[3.3.0]octane-7-carboxylate] | 8.11 | 6.99 |  |  | < 5.00 | 
15 | O=C(CF)C1CC2CNCC2C1 (single isomer, unassigned; isomer 1) [1-(3-azabicyclo[3.3.0]oct-7-yl)-2-fluoro-1-ethanone trifluoroacetate] | 6.75 | 6.81 |  |  |  | 
16 | O=C(C1CCCCC1)C1C[C@H]2CNC[C@H]2C1 (mixture of isomers) [cyclohexyl(3-azabicyclo[3.3.0]oct-7-yl)methanone] | 7.35 | 6.72 | < 50 |  |  | 
17 | CN(C)C(=O)[C@H]1C[C@H]2CNC[C@H]2C1 [cis-N,N-dimethyl-3-azabicyclo[3.3.0]octane-7-carboxamide] | 5.87 |  | < 50 |  |  | 

Row | SMILES | pKi (Human α4β2) | pKi (α4β2 nAChR Subtype; read-out: Rat α4β2 Ki) | inhibition at 5 µM (α7 nAChR Subtype) [%] | pKi (α4β2 nAChR Subtype; Rat α4β2 Ki) | pKi (α7 nAChR Subtype) | pKi (α7 nAChR Subtype; read-out: α7 Ki, [3H]MLA 5 nM, rat hippocampus)
18 | CC(C)(C)C(=O)C1C[C@H]2CNC[C@H]2C1 (mixture of isomers) [1-(3-azabicyclo[3.3.0]oct-7-yl)-2,2-dimethyl-1-propanone] | 8.38 | 7.67 | < 50 |  |  | 
19 | CC(CF)OC(=O)C1C[C@H]2CNC[C@H]2C1 (mixture of isomers) [1-fluoroprop-2-yl 3-azabicyclo[3.3.0]octane-7-carboxylate] | 6.95 | 6.57 | < 50 |  |  | 
20 | O=C(C1C[C@H]2CNC[C@H]2C1)N1CCC[C@H]1CO (mixture of isomers) [(S)-(2-(hydroxymethyl)-1-pyrrolidinyl)(3-azabicyclo[3.3.0]oct-7-yl)methanone] | 6.57 | 6.27 | < 50 |  |  | 
21 | CCOC(=O)C1C[C@H]2CNC[C@H]2C1 (mixture of isomers) [ethyl 3-azabicyclo[3.3.0]octane-7-carboxylate] | 7.76 | 7.34 | < 50 |  |  | 
22 | O=C(Nc1ccccc1)C1CC2CNCC(C2)C1 (stereo not shown) [N-phenyl-3-azabicyclo[3.3.1]nonane-7-carboxamide] | 7.90 |  | < 50 |  |  | 
23 | NCCNC(=O)C1CC2CNCC(C2)C1 (stereo not shown) [N-(2-aminoethyl)-3-azabicyclo[3.3.1]nonane-7-carboxamide] | 7.28 |  | < 50 |  |  | 
24 | O=C(CF)C1CC2CNCC2C1 (single isomer, unassigned; isomer 1) [1-(3-azabicyclo[3.3.0]oct-7-yl)-2-fluoro-1-ethanone trifluoroacetate cis isomer, 1-(3-azabicyclo[3.3.0]oct-7-yl)-2-fluoro-1-ethanone trifluoroacetate] | 8.20 | 8.17 |  |  |  | 
25 | O=C(C1=CC2CNCC2C1)c1ccco1.O=C(O)C(F)(F)F (stereo not shown) [2-furanyl(3-azabicyclo[3.3.0]oct-6-en-7-yl)methanone trifluoroacetate] | 8.70 |  |  | 8.10 |  | 
26 | O=C(Nc1cccnc1)C1CC2CNCC(C2)C1 (stereo not shown) [N-(pyridin-3-yl)-3-azabicyclo[3.3.1]nonane-7-carboxamide] | 7.33 |  | < 50 |  |  | 
27 | COC(=O)C1=CC2CNCC2C1.Cl (stereo not shown) [methyl 3-azabicyclo[3.3.0]-oct-6-ene-7-carboxylate hydrochloride] | 8.70 | 8.30 |  |  |  | 
28 | C=CCC(C)OC(=O)C1C[C@H]2CNC[C@H]2C1 (mixture of isomers) [pent-4-en-2-yl 3-azabicyclo[3.3.0]octane-7-carboxylate] | 7.35 |  |  |  |  | < 5.00
29 | COCC(=O)C1C[C@H]2CNC[C@H]2C1.O=C(O)C(F)(F)F (mixture of isomers) [1-(3-azabicyclo[3.3.0]oct-7-yl)-2-methoxy-1-ethanone trifluoroacetate] | 7.51 | 7.49 |  |  |  | 
30 | CC(C)OCC(=O)C1C[C@H]2CNC[C@H]2C1.O=C(O)C(F)(F)F (mixture of isomers) [1-(3-Azabicyclo[3.3.0]oct-7-yl)-2-isopropoxy-1-ethanone trifluoroacetate] | 6.58 | 6.37 |  |  |  | 
31 | CC(C)C(=O)C1CC2CNCC(C2)C1 (stereo not shown) [1-(3-azabicyclo[3.3.1]non-7-yl)-2-methyl-1-propanone] | 7.10 |  |  |  | < 5.00 | 
32 | O=C(NCC(F)(F)F)C1C[C@H]2CNC[C@H]2C1.O=C(O)C(F)(F)F (mixture of isomers) [N-(2,2,2-trifluoroethyl)-3-azabicyclo[3.3.0]octane-7-carboxamide trifluoroacetate] | 6.58 |  |  |  |  | 
33 | O=C(OC1CCC1)C1C[C@H]2CNC[C@H]2C1 (mixture of isomers) [cyclobutyl 3-azabicyclo[3.3.0]octane-7-carboxylate] | 7.09 |  |  |  | < 5.00 | 
34 | O=C(c1ccco1)C1CC2CNCC(C2)C1 (stereo not shown) [2-furanyl(3-azabicyclo[3.3.1]non-7-yl)methanone] | 6.95 |  |  |  | < 5.00 | 
